Tests used:
[1] = Solubility in solvents; assay type: physicochemical; details: e.g. in ethanol or acetone
Method: Furthermore compositions which contain water as solvent (f) are preferred. The solubility of the phthalic acid derivatives of the Formula (I) in polar solvents is good.
4-hydroxyphthalic anhydride (6.70 g; 40.8 mmol), BHT (10 mg) and N-(11-bromoundecyl)-N-methyl acrylamide (13.00 g; 40.8 mmol) were dissolved in N,N-dimethylformamide (100 ml). Potassium carbonate (5.64 g; 40.8 mmol) was added. The yellow suspension was stirred at RT. Water (200 ml) was added to the reaction mixture after 20 d and the whole stirred for 1 h at RT. An oily white solid precipitated from the initially cloudy solution. The solvent was decanted off. The residue was dissolved in dilute aqueous Na2CO3 solution (5%; 100 ml). The milky/cloudy aqueous phase was washed with MtBE (5×100 ml). Diluted hydrochloric acid (2N, 100 ml) was added to the water phase (pH=1) and extraction with MtBE (8×100 ml) took place. The combined extracts were dried over Na2SO4, filtered and concentrated on the rotary evaporator. Chloroform (150 ml) was added to the residue and the whole stirred at RT. After 20 h the suspension was filtered. The filtration residue was washed with chloroform (50 ml) and discarded. The filtrate was concentrated on the rotary evaporator. The residue was dissolved in chloroform (50 ml). Acetonitrile (50 ml) was added. After 72 h storage at −18° C. the solvent was decanted off and the residue dried under a fine vacuum.

[2] = Hydrolysis stability of AAUPA in acidic solution, followed by 1H-NMR; assay type: physicochemical; details: 5% AAUPA, 200 ppm BHT, 5% phosphoric acid d3, 10% D2O, 80% DMSO-d6; stored at 37° C., standing time 12 weeks
Method: A solution of 5% of the phthalic acid acrylamide AAUPA stabilized with 200 ppm 2,6-di-t-butyl-4-methylphenol, 5% phosphoric acid d3, 10% D2O and 80% DMSO-d6 was prepared, was stored at 37° C. and examined spectroscopically with ^1H-NMR. After a standing time of 12 weeks, no changes were able to be established in the ^1H-NMR spectrum.

[3] = in aqueous solutions; cited from earlier work

C=CC(=O)N(C)CCCCCCCCCCCOc1ccc(C(=O)O)c(C(=O)O)c1 [AAUPA, 4-[11-(acryloyl-methyl-amino)-undecyloxy]phthalic acid]
solubility [1]: dissolves very well
changes in the 1H-NMR spectrum (hydrolysis stability) [2]: no changes

C=C(C)C(=O)OCCOC(=O)c1ccc2c(c1)C(=O)OC2=O [Example 4-META]
hydrolysis to 4-MET [3]: very quickly hydrolyzed
